Experimental data published in patent publication US6737383B1, “Herbicidal oxadiazolidines” (priority 1999, dated 2004).

Tests used:
bedstraw = assay: Test B pre/postemergence bedstraw; format: in vivo, Galium aparine
Summary of the method: (§1)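 Test chemicals in a non-phytotoxic solvent mixture with surfactant were sprayed preemergence onto planted seeds and postemergence onto plants 2 to 18 cm tall (1- to 4-leaf stage). After twelve to sixteen days in a greenhouse, injury was visually rated against untreated controls from 0 (no effect) to 10 (complete control).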

soybean = assay: Test B pre/postemergence soybean; format: in vivo, Glycine max
Summary of the method: as §1

smallflower flatsedge = assay: Test B flood test smallflower flatsedge; format: in vivo, Cyperus difformis
Summary of the method: (§2)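 Plants were grown to the 2-leaf stage before treatment with test chemical, then held in a greenhouse for twelve to sixteen days. Injury was visually rated against untreated controls on a 0–10 scale, where 0 is no effect and 10 is complete control.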

blackgrass = assay: Test B pre/postemergence blackgrass; format: in vivo, Alopecurus myosuroides
Summary of the method: as §1

cocklebur = assay: Test B pre/postemergence cocklebur; format: in vivo, Xanthium strumarium
Summary of the method: as §1

bamyardgrass = assay: Test B flood test barnyardgrass; format: in vivo, Echinochloa crus-galli
Summary of the method: as §2

wheat = assay: Test B pre/postemergence wheat; format: in vivo, Triticum aestivum
Summary of the method: as §1

duck salad = assay: Test B flood test duck salad; format: in vivo, Heteranthera limosa
Summary of the method: as §2

velvetleaf = assay: Test B pre/postemergence velvetleaf; format: in vivo, Abutilon theophrasti
Summary of the method: as §1

purple nutsedge = assay: Test B pre/postemergence purple nutsedge; format: in vivo, Cyperus rotundus
Summary of the method: as §1

giant foxtail = assay: Test B pre/postemergence giant foxtail; format: in vivo, Setaria faberii
Summary of the method: as §1

wild oat = assay: Test B pre/postemergence wild oat; format: in vivo, Avena fatua
Summary of the method: as §1

pigweed = assay: Test B pre/postemergence pigweed; format: in vivo, Amaranthus retroflexus
Summary of the method: as §1

morningglory = assay: Test B pre/postemergence morningglory; format: in vivo, Ipomoea hederacea
Summary of the method: as §1

rape = assay: Test B pre/postemergence rape; format: in vivo, Brassica napus
Summary of the method: as §1

surinam grass = assay: Test B pre/postemergence surinam grass; format: in vivo, Brachiaria decumbens
Summary of the method: as §1

[1] = Preemergence, Rate 62 g/ha, scale of 0 to 10 where 0 is no effect and 10 is complete control
[2] = Preemergence, Rate 125 g/ha, 0 is no effect, 10 is complete control
[3] = Preemergence, Rate 250 g/ha, scale 0 to 10, 0 is no effect, 10 is complete control
[4] = Preemergence, Rate 500 g/ha, scale 0 to 10 (0 no effect, 10 complete control)
[5] = Rate 62 g/ha, Postemergence, scale of 0 to 10 where 0 is no effect and 10 is complete control
[6] = Rate 125 g/ha, Postemergence, scale 0 to 10
[7] = Rate 500 g/ha, Postemergence, scale 0 to 10
[8] = Rate 1000 g/ha, Preemergence, scale 0 to 10 (0 no effect, 10 complete control)
[9] = Postemergence, Rate 1000 g/ha, scale 0 to 10 (0 no effect, 10 complete control)
[10] = Rate 62 g/ha, headed Pre-emergence (flood test species), scale 0 to 10 (0 no effect, 10 complete control)
[11] = Rate 125 g/ha, Pre-emergence, flood test species, scale 0 to 10 where 0 is no effect and 10 is complete control
[12] = Rate 250 g/ha, Pre-emergence, flood-test species, scale 0 to 10, 0 is no effect, 10 is complete control
[13] = Rate 500 g/ha, headed Pre-emergence (flood test species), scale 0 to 10 (0 no effect, 10 complete control)
[14] = Rate 1000 g/ha, Pre-emergence (as headed), scale 0 to 10

SMILES: CC(C)N(C(=O)n1oc(=O)n(C2CCCC(C(F)(F)F)C2)c1=O)c1ccc(F)cc1 (stereo not drawn) [Compound 184]
- Bedstraw plant response rating (bedstraw; [1]): 0
- Bedstraw plant response rating (0 to 10 scale) (bedstraw; [2]): 0
- Bedstraw plant response rating (bedstraw; [3]): 2
- Bedstraw plant response rating (bedstraw; [4]): 2
- Bedstraw plant response rating (bedstraw; [5]): 0
- Bedstraw plant response rating (bedstraw; [6]): 7
- Plant response rating (0 to 10; 0 is no effect, 10 is complete control), Bedstraw (bedstraw; Rate 250 g/ha, Postemergence): 3
- Bedstraw plant response rating (bedstraw; [7]): 6
- Plant response rating, Bedstraw (bedstraw; [8]): 2
- Soybean plant response rating (soybean; [9]): 4
- Soybean plant response rating (soybean; [1]): 0
- Soybean plant response rating (0 to 10 scale) (soybean; [2]): 0
- Soybean plant response rating (soybean; [3]): 0
- Soybean plant response rating (soybean; [4]): 0
- Soybean plant response rating (soybean; [5]): 1
- Soybean plant response rating (soybean; [6]): 1
- Plant response rating (0 to 10; 0 is no effect, 10 is complete control), Soybean (soybean; Rate 250 g/ha, Postemergence): 3
- Soybean plant response rating (soybean; [7]): 3
- Plant response rating, Soybean (soybean; [8]): 0
- S. Flatsedge plant response rating (smallflower flatsedge; Pre-emergence, Rate 1000 g/ha, scale 0 to 10 (0 no effect, 10 complete control)): 0
- S. Flatsedge plant response rating (smallflower flatsedge; [10]): 0
- S. Flatsedge plant response rating (smallflower flatsedge; [11]): 0
- S. Flatsedge plant response rating (smallflower flatsedge; [12]): 0
- S. Flatsedge plant response rating (smallflower flatsedge; Rate 500 g/ha, Pre-emergence, flood test species, scale 0 to 10 (0 no effect, 10 complete control)): 0
- Blackgrass plant response rating (blackgrass; [9]): 7
- Blackgrass plant response rating (blackgrass; [1]): 0
- Blackgrass plant response rating (0 to 10 scale) (blackgrass; [2]): 3
- Blackgrass plant response rating (blackgrass; [3]): 5
- Blackgrass plant response rating (blackgrass; [4]): 7
- Blackgrass plant response rating (blackgrass; [5]): 0
- Blackgrass plant response rating (blackgrass; [6]): 1
- Plant response rating (0 to 10; 0 is no effect, 10 is complete control), Blackgrass (blackgrass; Rate 250 g/ha, Postemergence): 3
- Blackgrass plant response rating (blackgrass; [7]): 4
- Plant response rating, Blackgrass (blackgrass; [8]): 7
- Cocklebur plant response rating (cocklebur; [9]): 2
- Cocklebur plant response rating (cocklebur; [1]): 0
- Cocklebur plant response rating (0 to 10 scale) (cocklebur; [2]): 0
- Cocklebur plant response rating (cocklebur; [3]): 0
- Cocklebur plant response rating (cocklebur; [4]): 2
- Cocklebur plant response rating (cocklebur; [5]): 0
- Cocklebur plant response rating (cocklebur; [6]): 0
- Plant response rating (0 to 10; 0 is no effect, 10 is complete control), Cocklebur (cocklebur; Rate 250 g/ha, Postemergence): 0
- Cocklebur plant response rating (cocklebur; [7]): 1
- Plant response rating, Cocklebur (cocklebur; [8]): 3
- Barnyardgrass plant response rating (bamyardgrass; [10]): 0
- Barnyardgrass plant response rating (bamyardgrass; [11]): 0
- Barnyardgrass plant response rating (bamyardgrass; [12]): 0
- Plant response rating, Barnyardgrass (bamyardgrass; [13]): 6
- Barnyardgrass plant response rating (bamyardgrass; Rate 500 g/ha, listed under Postemergence (flood test species), scale 0 to 10): 0
- Barnyardgrass plant response rating (bamyardgrass; [14]): 3
- Wheat plant response rating (wheat; [9]): 3
- Wheat plant response rating (wheat; [1]): 0
- Wheat plant response rating (wheat; [3]): 0
- Wheat plant response rating (wheat; [4]): 0
- Wheat plant response rating (wheat; [6]): 2
- Plant response rating (0 to 10; 0 is no effect, 10 is complete control), Wheat (wheat; Rate 250 g/ha, Postemergence): 2
- Wheat plant response rating (wheat; [7]): 3
- Plant response rating, Wheat (wheat; [8]): 0
- Ducksalad plant response rating (duck salad; [10]): 0
- Ducksalad plant response rating (duck salad; [11]): 0
- Ducksalad plant response rating (duck salad; [12]): 0
- Plant response rating, Ducksalad (duck salad; [13]): 0
- Ducksalad plant response rating (duck salad; [14]): 0
- Velvetleaf plant response rating (velvetleaf; [9]): 2
- Velvetleaf plant response rating (velvetleaf; [1]): 0
- Velvetleaf plant response rating (velvetleaf; [3]): 2
- Velvetleaf plant response rating (velvetleaf; [4]): 7
- Velvetleaf plant response rating (velvetleaf; [6]): 1
- Plant response rating (0 to 10; 0 is no effect, 10 is complete control), Velvetleaf (velvetleaf; Rate 250 g/ha, Postemergence): 1
- Velvetleaf plant response rating (velvetleaf; [7]): 5
- Plant response rating, Velvetleaf (velvetleaf; [8]): 3
- Nutsedge plant response rating (purple nutsedge; [9]): 0
- Nutsedge plant response rating (purple nutsedge; [1]): 0
- Nutsedge plant response rating (0 to 10 scale) (purple nutsedge; [2]): 0
- Nutsedge plant response rating (purple nutsedge; [3]): 0
- Nutsedge plant response rating (purple nutsedge; [4]): 0
- Nutsedge plant response rating (purple nutsedge; [5]): 0
- Nutsedge plant response rating (purple nutsedge; [6]): 0
- Plant response rating (0 to 10; 0 is no effect, 10 is complete control), Nutsedge (purple nutsedge; Rate 250 g/ha, Postemergence): 0
- Nutsedge plant response rating (purple nutsedge; [7]): 0
- Giant foxtail plant response rating (giant foxtail; [9]): 3
- Giant foxtail plant response rating (giant foxtail; [1]): 0
- Giant foxtail plant response rating (0 to 10 scale) (giant foxtail; [2]): 9
- Giant foxtail plant response rating (giant foxtail; [3]): 10
- Giant foxtail plant response rating (giant foxtail; [4]): 10
- Giant foxtail plant response rating (giant foxtail; [5]): 0
- Giant foxtail plant response rating (giant foxtail; [6]): 0
- Plant response rating (0 to 10; 0 is no effect, 10 is complete control), Giant foxtail (giant foxtail; Rate 250 g/ha, Postemergence): 0
- Giant foxtail plant response rating (giant foxtail; [7]): 2
- Plant response rating, Giant foxtail (giant foxtail; [8]): 10
- Wild oats plant response rating (wild oat; [9]): 5
- Wild oats plant response rating (wild oat; [1]): 0
- Wild oats plant response rating (wild oat; [3]): 0
- Wild oats plant response rating (wild oat; [4]): 3
- Wild oats plant response rating (wild oat; [6]): 0
- Plant response rating (0 to 10; 0 is no effect, 10 is complete control), Wild oats (wild oat; Rate 250 g/ha, Postemergence): 0
- Wild oats plant response rating (wild oat; [7]): 2
- Plant response rating, Wild oats (wild oat; [8]): 4
- Redroot pigweed plant response rating (pigweed; [9]): 6
- Redroot pigweed plant response rating (pigweed; [1]): 0
- Redroot pigweed plant response rating (0 to 10 scale) (pigweed; [2]): 0
- Redroot pigweed plant response rating (pigweed; [3]): 0
- Redroot pigweed plant response rating (pigweed; [4]): 1
- Redroot pigweed plant response rating (pigweed; [5]): 0
- Redroot pigweed plant response rating (pigweed; [6]): 4
- Plant response rating (0 to 10; 0 is no effect, 10 is complete control), Redroot pigweed (pigweed; Rate 250 g/ha, Postemergence): 7
- Redroot pigweed plant response rating (pigweed; [7]): 7
- Plant response rating, Redroot pigweed (pigweed; [8]): 2
- Morningglory plant response rating (morningglory; [9]): 9
- Morningglory plant response rating (morningglory; [1]): 0
- Morningglory plant response rating (0 to 10 scale) (morningglory; [2]): 0
- Morningglory plant response rating (morningglory; [3]): 0
- Morningglory plant response rating (morningglory; [4]): 0
- Morningglory plant response rating (morningglory; [5]): 0
- Morningglory plant response rating (morningglory; [6]): 6
- Plant response rating (0 to 10; 0 is no effect, 10 is complete control), Morningglory (morningglory; Rate 250 g/ha, Postemergence): 6
- Morningglory plant response rating (morningglory; [7]): 7
- Plant response rating, Morningglory (morningglory; [8]): 2
- Rape plant response rating (rape; [9]): 3
- Rape plant response rating (rape; [1]): 0
- Rape plant response rating (0 to 10 scale) (rape; [2]): 0
- Rape plant response rating (rape; [3]): 0
- Rape plant response rating (rape; [4]): 0
- Rape plant response rating (rape; [5]): 0
- Rape plant response rating (rape; [6]): 2
- Plant response rating (0 to 10; 0 is no effect, 10 is complete control), Rape (rape; Rate 250 g/ha, Postemergence): 3
- Rape plant response rating (rape; [7]): 6
- Plant response rating, Rape (rape; [8]): 0
- B. signalgrass plant response rating (surinam grass; [9]): 3
- B. signalgrass plant response rating (surinam grass; [1]): 5
- B. signalgrass plant response rating (0 to 10 scale) (surinam grass; [2]): 5
- B. signalgrass plant response rating (surinam grass; [3]): 8
- B. signalgrass plant response rating (surinam grass; [4]): 8
- B. signalgrass plant response rating (surinam grass; [5]): 0
- B. signalgrass plant response rating (surinam grass; Rate 125 g/ha, Postemergence, scale 0 (no effect) to 10 (complete control)): 0
- Plant response rating, B. signalgrass (surinam grass; Rate 250 g/ha, Postemergence, scale 0 to 10, 0 is no effect, 10 is complete control): 0
- B. signalgrass plant response rating (surinam grass; Rate 500 g/ha, Postemergence, scale 0 to 10, 0 no effect, 10 complete control): 0
- Plant response rating, B. signalgrass (surinam grass; [8]): 5
